Assay results reported in patent US20100120763A1, “IMIDAZO[5,1-C][1,2,4]BENZOTRIAZINE DERIVATIVES AS INHIBITORS OF PHOSPHODIESTERASES” (priority 2008, published 2010).
pIC50: −log10 of the molar value. Like-named read-outs stand apart in the source and are kept apart here.

Assays:
[1] = biological target: T1, PDE2A (Homo sapiens, UniProt O00408); experiment: Inhibition of recombinant PDE2A (expressed in baculovirus/SF21-cells), [3H]-cAMP SPA; type: biochemical
T1 construct: made in house; host or cells: SF21 insect cells (baculovirus)
Method: Inhibition of Recombinant PDE2A (Expressed in Baculovirus/SF21-Cells)
PDE2A (NM002599) was cloned and the gene was inserted in the baculovirus and the enzyme-protein expressed in SF21-cells. The enzyme was isolated from these cells by harvesting the cells by an centrifugation at 200 g to collect the cells. The cells were resuspended in 50 mM Tris-HCl/5 mM MgCl2 buffer (pH=7.4) (Sigma, Deisenhofen, Germany; Merck, Darmstadt, Germany) and lysed by a sonication of the cells (three times for 15 seconds, Labsonic U, Fa. Braun, Degersheim, Switzerland, level “high”). The membrane fraction of PDE2A was obtained by a centrifugation at 48 000 g for 1 h, resuspended in buffer and stored at −70° C.
PDE2A activity was determined in a one step procedure in microtiterplates. The reaction mixture of 100 μl contained 50 mM Tris-HCl/5 mM MgCl2 buffer (pH=7.4) (Sigma, Deisenhofen, Germany; Merck, Darmstadt, Germany), 0.5 μM [3H]-cAMP (Amersham, Buckinghamshire, UK), 1000 nM cGMP and the enzyme. Non-specific enzyme activity was tested in the absence of cGMP. The reaction was initiated by addition of the substrate solution and was carried out at 37° C. for 30 minutes. Enzymatic activity then was stopped by addition of 25 μl SPA-beads (Amersham-Pharmacia). One hour later the mixture was measured in a liquid scintillation counter for microtiterplates (Microbeta Trilux). For pipetting of the incubation mixture the robot Biomek (Fa. Beckman) was routinely used.
For determination of IC50 values the Hill-plot, 2-parameter-model, was used.

[2] = biological target: T2, PDE10A (Homo sapiens, UniProt Q9Y233); experiment: Inhibition of recombinant PDE10A (baculovirus/SF21 system), [3H]-cAMP SPA; type: biochemical; conditions: read-out: PDE10A IC50
T2 construct: made in house; host or cells: SF21 insect cells (baculovirus)
Method: Inhibition of Recombinant PDE10A (Baculovirus/SF21 System)
The gene was than inserted into a baculovirus vector, ligated with the baculovirus DNA. The enzyme-protein was expressed in SF21-cells. The enzyme was isolated from these cells by harvesting the cells by an centrifugation at 500 g to collect the cells.
The cells were resuspended in 50 mM Tris-HCl/1 mM EDTA/250 mM Sucrose buffer, pH=7.4 (Sigma, Deisenhofen, Germany; Merck, Darmstadt, Germany) and lysed by sonification of the cells (three times for 15 seconds, Labsonic U, Fa. Braun, Degersheim, Switzerland, level “high”). The cytosolic PDE10A was obtained by a centrifugation at 48,000 g for 1 h in the supernatant and stored at −70° C.
PDE activity was determined in a one step procedure in microtiter plates. The reaction mixture of 100 μl contained 50 mM Tris-HCl/5 mM MgCl2 buffer (pH=7.4, Sigma, Deisenhofen, Germany; Merck, Darmstadt, Germany) 0.1 μM [3H]-cAMP (Amersham, Buckinghamshire, UK) and the enzyme. Non-specific enzyme activity was determined without the enzyme. The reaction was initiated by addition of the substrate solution and was carried out at 37° C. for 30 minutes. Enzymatic activity then was stopped by addition of 25 μl Ysi-SPA-beads (Amersham-Pharmacia). One hour later the mixture was measured in a liquid scintillation counter for microtiter plates (Microbeta Trilux). The Biomek 2000 (Beckman) was used routinely for pipetting of the incubation mixture. […] For determination of IC50 values the Hill-plot, 2-parameter-model, was used.

[3] = recombinant PDE10A1, cytosolic, 0.1 μM [3H]-cAMP, 37° C., 30 minutes

T1 sequence (O00408 whole entry): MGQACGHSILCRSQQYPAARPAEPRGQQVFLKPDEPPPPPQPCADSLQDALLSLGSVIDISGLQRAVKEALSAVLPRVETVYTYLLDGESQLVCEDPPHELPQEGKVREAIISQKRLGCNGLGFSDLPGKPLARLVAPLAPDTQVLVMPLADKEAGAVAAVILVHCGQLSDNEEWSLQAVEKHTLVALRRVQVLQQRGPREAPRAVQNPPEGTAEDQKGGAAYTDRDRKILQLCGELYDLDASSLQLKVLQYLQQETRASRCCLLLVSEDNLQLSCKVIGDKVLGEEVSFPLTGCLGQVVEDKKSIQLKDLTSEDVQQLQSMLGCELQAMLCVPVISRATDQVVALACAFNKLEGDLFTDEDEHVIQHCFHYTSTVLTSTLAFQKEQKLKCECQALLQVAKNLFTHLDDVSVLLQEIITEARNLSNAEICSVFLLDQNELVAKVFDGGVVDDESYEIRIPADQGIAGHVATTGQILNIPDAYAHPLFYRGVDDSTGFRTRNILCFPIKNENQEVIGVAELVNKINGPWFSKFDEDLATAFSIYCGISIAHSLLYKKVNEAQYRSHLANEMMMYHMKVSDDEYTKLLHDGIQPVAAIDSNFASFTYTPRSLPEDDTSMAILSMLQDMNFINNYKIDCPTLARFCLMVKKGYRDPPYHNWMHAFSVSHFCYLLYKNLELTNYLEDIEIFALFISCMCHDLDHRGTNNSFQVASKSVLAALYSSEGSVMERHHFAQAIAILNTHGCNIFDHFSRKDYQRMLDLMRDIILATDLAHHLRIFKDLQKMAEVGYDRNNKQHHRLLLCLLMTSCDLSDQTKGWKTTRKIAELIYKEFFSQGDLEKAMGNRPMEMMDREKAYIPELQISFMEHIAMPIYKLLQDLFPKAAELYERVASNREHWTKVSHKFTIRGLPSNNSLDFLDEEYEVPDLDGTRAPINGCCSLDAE
T2 sequence (Q9Y233 1-779 isoform Q9Y233-1): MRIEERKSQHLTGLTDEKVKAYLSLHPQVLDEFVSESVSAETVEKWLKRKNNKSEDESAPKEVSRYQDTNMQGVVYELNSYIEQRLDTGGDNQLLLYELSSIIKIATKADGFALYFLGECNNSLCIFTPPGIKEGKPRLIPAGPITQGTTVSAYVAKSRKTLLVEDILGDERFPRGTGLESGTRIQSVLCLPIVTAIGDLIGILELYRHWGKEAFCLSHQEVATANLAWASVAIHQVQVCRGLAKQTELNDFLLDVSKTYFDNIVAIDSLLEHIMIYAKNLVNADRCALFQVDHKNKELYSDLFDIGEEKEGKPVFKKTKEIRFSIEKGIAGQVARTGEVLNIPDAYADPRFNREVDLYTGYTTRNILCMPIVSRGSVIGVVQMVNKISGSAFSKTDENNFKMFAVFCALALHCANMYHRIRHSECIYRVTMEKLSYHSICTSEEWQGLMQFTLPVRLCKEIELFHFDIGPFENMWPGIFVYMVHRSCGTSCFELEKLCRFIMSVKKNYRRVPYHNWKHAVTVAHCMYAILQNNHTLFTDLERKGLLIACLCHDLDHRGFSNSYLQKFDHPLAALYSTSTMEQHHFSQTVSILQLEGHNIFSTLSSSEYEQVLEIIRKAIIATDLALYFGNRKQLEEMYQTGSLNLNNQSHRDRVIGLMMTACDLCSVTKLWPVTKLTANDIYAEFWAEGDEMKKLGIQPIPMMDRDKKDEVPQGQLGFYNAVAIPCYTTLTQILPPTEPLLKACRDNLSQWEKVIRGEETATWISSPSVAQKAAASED

| Compound | pIC50 [1] | pIC50 [2, 3] | pIC50 ([1]; recombinant PDE2A, membrane fraction, 0.5 μM [3H]-cAMP, 1000 nM cGMP, 37° C., 30 minutes, read-out: PDE2A IC50) | pIC50 [2] |
| --- | --- | --- | --- | --- |
| CCOc1ccc(Cl)c(-c2nc(C)c3nnc4c(OC)cc(F)cc4n23)c1 [Example 108, 1-(2-chloro-5-ethoxyphenyl)-8-fluoro-6-methoxy-3-methylimidazo[5,1-c][1,2,4]benzotriazine] | 7.26 | 8.08 | – | – |
| COc1cccc2c1nnc1c(C)nc(-c3ccncc3C)n12 [Example 62, 6-methoxy-3-methyl-1-(3-methylpyridin-4-yl)imidazo[5,1-c][1,2,4]benzotriazine] | 6.35 | 8.08 | – | – |
| 8-fluoro-1-isobutyl-3-methylbenzo[e]imidazo[5,1-c][1,2,4]triazine [Example 9] | – | 6.81 | 6.52 | – |
| COc1cc(F)c2nnc3c(C)nc(-c4sc(C)nc4C)n3c2c1 [Example 91, 1-(2,4-dimethyl-1,3-thiazol-5-yl)-6-fluoro-8-methoxy-3-methylimidazo[5,1-c][1,2,4]benzotriazine] | 7.25 | 7.36 | – | – |
| COc1cc(F)c2nnc3c(C)nc(-c4cccnc4F)n3c2c1 [Example 94, 6-fluoro-1-(2-fluoropyridin-3-yl)-8-methoxy-3-methylimidazo[5,1-c][1,2,4]benzotriazine] | 6.90 | 6.91 | – | – |
| COc1cc(F)c2nnc3c(C)nc(-c4ccc(C)cc4F)n3c2c1 [Example 74, 6-fluoro-1-(2-fluoro-4-methylphenyl)-8-methoxy-3-methylimidazo[5,1-c][1,2,4]benzotriazine] | 6.87 | 7.41 | – | – |
| COc1cc(F)cc2c1nnc1c(C)nc(-c3cc(F)ccc3Cl)n12 [Example 118, 1-(2-chloro-5-fluorophenyl)-8-fluoro-6-methoxy-3-methylimidazo[5,1-c][1,2,4]benzotriazine] | – | 8.69 | – | – |
| COc1cc(F)c2nnc3c(C)nc(-c4c(C)nn(C)c4C)n3c2c1 [Example 85, 6-fluoro-8-methoxy-3-methyl-1-(1,3,5-trimethyl-1H-pyrazol-4-yl)imidazo[5,1-c][1,2,4]benzotriazine] | 7.43 | 7.26 | – | – |
| COc1cc(F)c2nnc3c(C)nc(-c4cc(OC(F)(F)F)ccc4Cl)n3c2c1 [Example 83, 1-[2-chloro-5-(trifluoromethoxy)phenyl]-6-fluoro-8-methoxy-3-methylimidazo[5,1-c][1,2,4]benzotriazine] | 7.78 | 7.18 | – | – |
| COc1cc(F)c2nnc3c(C)nc(-c4sccc4C)n3c2c1 [Example 81, 6-fluoro-8-methoxy-3-methyl-1-(3-methylthiophen-2-yl)imidazo[5,1-c][1,2,4]benzotriazine] | 7.44 | 8.03 | – | – |
| Cc1cn(-c2ccc3nnc4c(C)nc(CC(C)C)n4c3c2)c(CC(C)C)n1 [Example 182, 1-Isobutyl-8-(2-isobutyl-4-methyl-imidazol-1-yl)-3-methyl-imidazo[5,1-c][1,2,4]benzotriazine] | 6.87 | 7.48 | – | – |
| Cc1cnccc1-c1nc(C)c2nnc3c(Cl)cc(C(F)(F)F)cc3n12 [Example 132, 6-Chloro-3-methyl-1-(3-methylpyridin-4-yl)-8-(trifluoromethyl)imidazo[5,1-c][1,2,4]benzotriazine] | – | 7.49 | – | – |
| COc1ccc(Cl)cc1-c1nc(C)c2nnc3c(OC)cc(C(F)(F)F)cc3n12 [Example 142, 1-(5-Chloro-2-methoxyphenyl)-6-methoxy-3-methyl-8-(trifluoromethyl)benzo[e]imidazo[5,1-c][1,2,4]triazine] | – | 7.97 | – | – |
| COc1cc(F)cc2c1nnc1c(C)nc(-c3cc(C)ccc3F)n12 [Example 105, 8-fluoro-1-(2-fluoro-5-methylpehnyl)-6-methoxy-3-methylimidazo[5,1-c][1,2,4]benzotriazine] | – | 8.15 | – | – |
| 8-fluoro-6-methoxy-3-methyl-1-(2-methylpyridin-3-yl)imidazo[5,1-c][1,2,4]benzotriazine [Example 130] | – | – | – | 8.11 |
| 8-fluoro-6-methoxy-3-methyl-1-(3-methylpyridin-4-yl)imidazo[5,1-c][1,2,4]benzotriazine [Example 131] | – | 8.14 | – | – |
